{"source": "paper PMC6780087", "about": "(Marine Drugs, 2019)", "origin": "cited, not measured here", "key": {"[1]": {"system": "NaChBac", "settings": "ref [55]"}, "[2]": {"system": "NaChBac", "settings": "ref [54]"}}, "data": [{"smiles": "CC(C)c1cccc(C(C)C)c1O", "note": "[propofol]", "values": [{"measurement": "binding to NaChBac", "setting": "[1]", "value": "binding to multiple channel sites"}, {"measurement": "effect on NaChBac", "setting": "[2]", "value": "inhibits peak currents and promotes activation-linked inactivation in NaChBac"}]}]}
